From ChEMBL document CHEMBL1201862, “PubChem BioAssay data set” (2004)
Activity calls are given as the source filed them.

Experiments:
[1] = target: T1, RNA-binding protein pos-1 (Caenorhabditis elegans, UniProt G5EF15); assay: disruptors of C. elegans POS-1 RNA interaction – biochemical, fluorescence polarization, dose response (AID 1964);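 note: purified POS-1 fused to maltose binding protein made in E. coli; potency of compounds blocking POS-1 binding to fluorescent RNA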
T1 sequence (G5EF15 whole entry): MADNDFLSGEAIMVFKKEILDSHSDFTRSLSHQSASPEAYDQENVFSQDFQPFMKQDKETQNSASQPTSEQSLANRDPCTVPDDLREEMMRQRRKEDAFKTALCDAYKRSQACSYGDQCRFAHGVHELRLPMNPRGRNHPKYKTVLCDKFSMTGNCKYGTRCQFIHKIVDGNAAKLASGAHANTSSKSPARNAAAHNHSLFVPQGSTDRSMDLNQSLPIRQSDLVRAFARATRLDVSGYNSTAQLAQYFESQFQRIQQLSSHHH

[2] = target: T2, Corticotropin-releasing factor receptor 2/Corticotropin-releasing factor-binding protein (Homo sapiens, UniProt P24387+Q13324); assay: Dose Response confirmation of uHTS hits for small molecule antagonists of the CRF-binding protein and CRF-R2 receptor complex.; type: functional; settings: read-out: IC50_Mean
T2 sequence (Q13324 whole entry): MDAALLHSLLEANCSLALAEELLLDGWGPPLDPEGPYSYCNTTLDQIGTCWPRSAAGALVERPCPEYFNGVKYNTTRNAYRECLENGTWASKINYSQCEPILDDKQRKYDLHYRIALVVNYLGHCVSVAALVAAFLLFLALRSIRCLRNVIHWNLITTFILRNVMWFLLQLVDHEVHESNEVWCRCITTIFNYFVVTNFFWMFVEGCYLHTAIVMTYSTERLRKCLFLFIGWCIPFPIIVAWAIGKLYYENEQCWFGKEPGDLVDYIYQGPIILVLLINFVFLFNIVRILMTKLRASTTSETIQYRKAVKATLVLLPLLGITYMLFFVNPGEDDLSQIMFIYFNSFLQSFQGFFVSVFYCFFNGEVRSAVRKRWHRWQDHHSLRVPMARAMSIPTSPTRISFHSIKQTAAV
T2 sequence (P24387 whole entry): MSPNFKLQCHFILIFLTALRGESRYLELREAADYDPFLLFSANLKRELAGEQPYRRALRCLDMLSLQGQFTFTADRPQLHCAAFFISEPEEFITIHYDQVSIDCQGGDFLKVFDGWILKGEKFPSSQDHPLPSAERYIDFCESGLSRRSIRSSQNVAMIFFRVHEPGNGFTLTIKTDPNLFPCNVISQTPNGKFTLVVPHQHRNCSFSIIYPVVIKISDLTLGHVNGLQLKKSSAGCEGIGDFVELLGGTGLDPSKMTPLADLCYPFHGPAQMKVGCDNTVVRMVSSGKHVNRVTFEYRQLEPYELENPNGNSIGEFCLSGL

[3] = target: T2, Corticotropin-releasing factor receptor 2/Corticotropin-releasing factor-binding protein; assay: activators of CRF receptor 2 with binding protein – uHTS hits, confirmation (AID 602473); type: functional; settings: read-out: EC50_Mean
[4] = viability of PTEN-deleted HCT116 cells – cell-based, HCT116 PTEN knockout, dose response (AID 1047); type: functional;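 note: HCT116 colon tumor cells with PTEN knocked out; cells exposed to compound for 60 hours before readout; potency for loss of cell viability measured by luminescence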
[5] = viability of HCT116 lacking mutant beta-catenin – cell-based, human colon tumor, dose response (AID 1045); type: functional;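 note: HCT116 colon tumor cells with beta catenin knocked out; cells exposed to compound for 60 hours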
[6] = target: T3, Rac GTPase-activating protein 1 (Homo sapiens, UniProt Q9H0H5); assay: blockers of MgcRacGAP-driven Rac1 GTP hydrolysis – biochemical, ADP Hunter fluorescence, primary and confirmatory, confirmation (AID 624330); type: functional
T3 sequence (Q9H0H5 whole entry): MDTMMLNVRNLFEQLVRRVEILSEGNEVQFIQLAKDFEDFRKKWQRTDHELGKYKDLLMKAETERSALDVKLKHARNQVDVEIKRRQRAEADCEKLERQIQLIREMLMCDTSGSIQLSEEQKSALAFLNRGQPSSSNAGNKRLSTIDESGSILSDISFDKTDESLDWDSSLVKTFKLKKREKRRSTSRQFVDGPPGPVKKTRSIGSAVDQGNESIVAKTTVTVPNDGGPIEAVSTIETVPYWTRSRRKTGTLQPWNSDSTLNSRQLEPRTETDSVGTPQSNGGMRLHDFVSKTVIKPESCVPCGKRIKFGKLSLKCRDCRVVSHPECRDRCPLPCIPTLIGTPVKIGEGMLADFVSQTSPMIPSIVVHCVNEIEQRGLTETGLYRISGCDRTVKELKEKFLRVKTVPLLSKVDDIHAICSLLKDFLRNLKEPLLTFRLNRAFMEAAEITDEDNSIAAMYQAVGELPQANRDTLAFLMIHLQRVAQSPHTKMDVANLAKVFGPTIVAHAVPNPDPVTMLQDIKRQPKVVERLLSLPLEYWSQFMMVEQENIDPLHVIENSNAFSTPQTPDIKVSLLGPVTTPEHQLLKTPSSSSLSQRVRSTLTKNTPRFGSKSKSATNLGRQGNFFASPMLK

Cytochrome P450 1A2 = target: T4, Cytochrome P450 1A2 (Homo sapiens, UniProt P05177);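 note: PubChem cytochrome P450 panel assay, CYP1A2 panel member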
T4 sequence (P05177 whole entry): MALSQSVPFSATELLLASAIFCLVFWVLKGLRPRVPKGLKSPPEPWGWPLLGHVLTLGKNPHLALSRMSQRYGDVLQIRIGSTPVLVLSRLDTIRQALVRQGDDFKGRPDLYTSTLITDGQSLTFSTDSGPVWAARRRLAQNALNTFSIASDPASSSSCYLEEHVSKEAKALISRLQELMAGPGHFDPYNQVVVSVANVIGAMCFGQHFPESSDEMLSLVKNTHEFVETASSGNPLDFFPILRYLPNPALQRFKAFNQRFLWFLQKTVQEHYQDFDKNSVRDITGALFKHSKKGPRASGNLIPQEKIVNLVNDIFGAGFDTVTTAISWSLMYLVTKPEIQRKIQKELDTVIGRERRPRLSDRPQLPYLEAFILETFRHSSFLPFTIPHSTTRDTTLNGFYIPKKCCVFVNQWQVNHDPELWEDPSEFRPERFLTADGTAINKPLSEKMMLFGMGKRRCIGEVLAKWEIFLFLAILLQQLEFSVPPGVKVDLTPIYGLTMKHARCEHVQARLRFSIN

Cytochrome P450 3A4 = Cytochrome P450 3A4 (Homo sapiens, UniProt P08684);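 note: CYP3A4 tested as one member of a cytochrome P450 panel screen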
Cytochrome P450 2C9 = Cytochrome P450 2C9 (Homo sapiens, UniProt P11712)
[7] = target: T5, Zinc finger protein mex-5 (Caenorhabditis elegans, UniProt Q9XUB2); assay: potency of MEX-5 RNA-binding blockers – biochemical, C. elegans, fluorescence polarization, dose response (AID 1960)
T5 sequence (Q9XUB2 whole entry): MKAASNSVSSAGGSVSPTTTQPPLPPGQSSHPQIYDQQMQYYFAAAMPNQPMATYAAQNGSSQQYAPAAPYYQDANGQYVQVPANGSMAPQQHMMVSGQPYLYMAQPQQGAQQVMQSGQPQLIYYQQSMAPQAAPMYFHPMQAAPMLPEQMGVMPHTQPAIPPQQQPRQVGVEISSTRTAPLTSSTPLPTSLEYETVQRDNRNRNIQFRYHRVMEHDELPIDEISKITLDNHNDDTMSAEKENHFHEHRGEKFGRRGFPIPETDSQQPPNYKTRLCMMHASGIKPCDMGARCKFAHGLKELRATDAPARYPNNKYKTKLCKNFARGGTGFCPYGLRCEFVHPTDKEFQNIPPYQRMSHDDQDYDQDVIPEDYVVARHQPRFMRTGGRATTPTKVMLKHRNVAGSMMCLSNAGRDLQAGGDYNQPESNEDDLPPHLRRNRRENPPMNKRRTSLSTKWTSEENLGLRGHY

H4 = assay: Luminescence Cell-Based Dose Response HTS to Identify Activators of 5'UTR Stem-Loop Driven Prion Protein mRNA Translation in H4 Neuroglioblastoma Cells. [Related pubchem assays: 1829 (Project Summary), 1814 (Primary HTS)]; type: functional; settings: Homo sapiens
[8] = target: T6, Heat shock factor protein 1 (Mus musculus, UniProt P38532); assay: decrease of HSF1-responsive luciferase luminescence – cell-based, NIH3T3, dose retest, confirmation (AID 2382); type: functional;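 note: NIH3T3 fibroblasts with HSF1-driven luciferase reporter stressed by proteasome inhibitor MG132; luminescence from HSF1-driven luciferase expression after 8 hours of MG132 stress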
T6 sequence (P38532 whole entry): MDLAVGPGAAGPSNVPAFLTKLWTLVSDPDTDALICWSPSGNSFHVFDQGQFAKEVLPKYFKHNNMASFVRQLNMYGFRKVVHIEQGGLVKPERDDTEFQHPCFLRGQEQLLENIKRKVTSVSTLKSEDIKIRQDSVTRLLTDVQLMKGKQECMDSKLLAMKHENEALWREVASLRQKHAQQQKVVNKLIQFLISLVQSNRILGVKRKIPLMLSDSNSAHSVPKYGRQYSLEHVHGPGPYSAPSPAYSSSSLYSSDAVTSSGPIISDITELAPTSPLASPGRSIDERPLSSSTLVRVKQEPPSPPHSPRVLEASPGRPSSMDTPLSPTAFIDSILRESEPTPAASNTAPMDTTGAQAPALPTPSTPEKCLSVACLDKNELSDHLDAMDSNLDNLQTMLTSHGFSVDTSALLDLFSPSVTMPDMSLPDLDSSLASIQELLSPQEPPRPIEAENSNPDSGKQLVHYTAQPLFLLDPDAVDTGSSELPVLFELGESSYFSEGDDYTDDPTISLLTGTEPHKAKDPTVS

[9] = Trypanosoma cruzi growth suppression in host cells – NIH3T3 host cells, beta-gal luminescence, confirmation (AID 2044); type: functional, cell-based;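 note: intracellular parasites grown in NIH/3T3 mouse fibroblasts as host cells; luminescent beta-galactosidase reporter signal from transgenic T. cruzi replicating inside host cells; inhibitors lower the luminescence signal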
[10] = NIH3T3 cell viability loss – ATP luminescence, mouse fibroblasts, counter-screen, dose response (AID 2010); type: functional, cell-based;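 note: cells exposed to compound for about 90 hours before reading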

Chain of Cytochrome P450 3A4 (P08684 whole entry): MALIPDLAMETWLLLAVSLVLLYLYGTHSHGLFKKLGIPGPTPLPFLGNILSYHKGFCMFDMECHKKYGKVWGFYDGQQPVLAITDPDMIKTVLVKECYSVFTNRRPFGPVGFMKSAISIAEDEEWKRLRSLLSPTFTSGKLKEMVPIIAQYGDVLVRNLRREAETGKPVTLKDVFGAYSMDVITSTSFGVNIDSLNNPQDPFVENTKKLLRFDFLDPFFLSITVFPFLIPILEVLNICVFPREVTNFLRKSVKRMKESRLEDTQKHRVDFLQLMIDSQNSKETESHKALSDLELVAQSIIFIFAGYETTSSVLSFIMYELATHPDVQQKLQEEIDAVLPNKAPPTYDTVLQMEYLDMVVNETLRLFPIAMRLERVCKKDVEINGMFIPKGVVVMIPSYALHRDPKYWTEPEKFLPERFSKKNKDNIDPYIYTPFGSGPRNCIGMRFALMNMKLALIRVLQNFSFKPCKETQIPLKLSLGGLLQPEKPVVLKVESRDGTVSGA
Chain of Cytochrome P450 2C9 (P11712 whole entry): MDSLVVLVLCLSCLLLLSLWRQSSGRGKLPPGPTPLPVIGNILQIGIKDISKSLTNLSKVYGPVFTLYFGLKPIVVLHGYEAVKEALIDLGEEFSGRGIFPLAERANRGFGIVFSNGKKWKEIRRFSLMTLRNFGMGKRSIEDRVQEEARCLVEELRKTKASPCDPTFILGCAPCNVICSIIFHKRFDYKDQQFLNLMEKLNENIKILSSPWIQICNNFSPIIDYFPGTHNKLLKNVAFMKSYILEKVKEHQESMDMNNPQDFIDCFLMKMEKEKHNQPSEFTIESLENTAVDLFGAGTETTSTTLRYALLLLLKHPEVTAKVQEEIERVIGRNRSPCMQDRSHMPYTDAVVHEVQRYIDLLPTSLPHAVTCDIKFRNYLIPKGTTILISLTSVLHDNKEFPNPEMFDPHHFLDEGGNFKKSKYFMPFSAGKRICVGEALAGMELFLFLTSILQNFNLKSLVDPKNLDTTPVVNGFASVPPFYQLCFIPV

## CCOC(=O)C1=C(C)N=c2s/c(=C/c3ccc(OCC(=O)O)cc3)c(=O)n2C1c1ccc(OC)cc1OC (stereo not drawn)
[1]
  EC50: 85.1 µM (active)

## O=C(CSCc1ccccc1Br)NNC(=S)NCc1ccco1
[2]
  IC50: > 47.1 µM (inactive)
[3]
  EC50: > 53 µM (inactive)

## C[C@H](CO)N1C[C@H](C)[C@@H](CN(C)C(=O)c2ccc3ccn(C)c3c2)OCc2cn(nn2)CCCC1=O
[2]
  IC50: > 47.1 µM (inactive)
[3]
  EC50: > 53 µM (inactive)

## CC(C)Cn1c(N)c(C(=O)CSc2ncnc3sc4c(c23)CCCC4)c(=O)n(C)c1=O
[4]
  EC50: 12.1 µM (active)
[5]
  EC50: 12.2 µM (active)

## COc1cc(/C=C/C(=O)OCC(=O)NNC(=O)c2cc(Cl)ccc2OC)ccc1O
[6]
  IC50: 60.5 µM (active)

## COc1ccc(-c2csc(-n3ncc(-c4cccs4)c3N)n2)cc1
Cytochrome P450 1A2
  AC50: 0.355 µM (inconclusive)
Cytochrome P450 3A4
  AC50: 8.91 µM (inconclusive)
Cytochrome P450 2C9
  AC50: 0.0501 µM (inconclusive)

## CC(C(=O)NC1CCCCC1)N1CCN(C)CC1 (stereo not drawn)
[6]
  IC50: 93.7 µM (active)

## CN1C(=O)C(=CNCCCCCCCCCCC(=O)O)C(=O)N(C)C1=O
[1]
  EC50: > 300 µM (not active)
[7]
  EC50: > 300 µM (not active)

## N#CC1=C(N)C(C#N)(C#N)C(c2cccnc2)C2COCC=C12 (stereo not drawn)
[1]
  EC50: > 300 µM (not active)
[7]
  EC50: > 300 µM (not active)

## CN(C)c1ccc(/C=N\Nc2ccccn2)cc1
[6]
  IC50: 31.6 µM (active)

## c1ccc(-c2nc(-c3ccccn3)nc(-c3ccccn3)n2)nc1
[1]
  EC50: 31.1 µM (active)
[7]
  EC50: 54.6 µM (active)

## Nc1sc(-c2ccccc2)c(Cc2ccccc2)c1C(=O)O
[6]
  IC50: 67.6 µM (active)

## COc1ccc(-c2nc3cnc(OC)nc3n(CCc3ccccc3)c2=O)cc1
Cytochrome P450 1A2
  AC50: 6.31 µM (inconclusive)
Cytochrome P450 3A4
  AC50: 10 µM (inconclusive)
Cytochrome P450 2C9
  AC50: 6.31 µM (inconclusive)

## Nc1nc(NC(=O)c2cccs2)nn1-c1ccccc1
H4
  EC50: > 120 µM (not active)

## O=C(O)c1cccc(NC(=NS(=O)(=O)c2ccccc2)c2ccccc2)c1
[2]
  IC50: > 47.1 µM (inactive)
[3]
  EC50: > 53 µM (inactive)

## CN(c1ccccc1)S(=O)(=O)c1ccc2c(c1)oc(=O)n2C
[2]
  IC50: > 47.1 µM (inactive)
[3]
  EC50: > 53 µM (inactive)

## Oc1ccc(/C=N/Nc2nc(N3CCCC3)nc(N3CCCC3)n2)cc1O
[6]
  IC50: 57.3 µM (active)

## CCCn1c(=O)c2ccccc2n2c(SCCNCCO)nnc12
[6]
  IC50: 52.2 µM (active)

## CC(=O)N1c2ccc(S(=O)(=O)N(C)CC(=O)NC3CCCC3)cc2CC1C (stereo not drawn)
[2]
  IC50: > 47.1 µM (inactive)
[3]
  EC50: > 53 µM (inactive)

## Oc1ccccc1CNc1ccc2c(c1)OCCO2
[6]
  IC50: 94.9 µM (active)

## CN(C)S(=O)(=O)c1ccc(C(=O)OCC(=O)Nc2ccc(OC(F)F)cc2)cc1
[2]
  IC50: > 47.1 µM (inactive)
[3]
  EC50: > 53 µM (inactive)

## Cc1ccc(-c2nnc(S)n2/N=C/c2ccc(C(=O)O)cc2)cc1
[6]
  IC50: 74.4 µM (active)

## Cc1[nH]c2ccc(-c3nnc(SCC(=O)c4ccc(F)cc4)o3)cc2c1C
[8]
  EC50: > 195 µM (not active)
[4]
  EC50: 33.4 µM (active)
[5]
  EC50: 31.2 µM (active)

## CCOC(=O)c1cccc(-n2c(-c3ccc(OC)cc3)nc3nc4ccccc4nc32)c1
[4]
  EC50: 15.3 µM (active)
[5]
  EC50: 13.5 µM (active)

## CS(=O)(=O)N(CC(O)Cn1c2ccccc2c2ccccc21)c1cccc2ccccc12 (stereo not drawn)
[4]
  EC50: 16 µM (active)
[5]
  EC50: 18.1 µM (active)

## c1ccc(C(c2nnnn2Cc2cccs2)N2CCN(C3CCCC3)CC2)cc1 (stereo not drawn)
[2]
  IC50: > 47.1 µM (inactive)
[3]
  EC50: > 53 µM (inactive)

## COc1ccccc1NS(=O)(=O)c1cc(N)ccc1N1CCCC1
[6]
  IC50: 47.8 µM (active)

## COc1ccc2[nH]c3c(=O)n(Cc4ccc(C(=O)N5CCC(C(N)=O)CC5)cc4)c(=S)[nH]c3c2c1
[6]
  IC50: 61.3 µM (active)

## NC(=O)CSc1nnnn1-c1ccc2c(c1)OCCO2
[2]
  IC50: > 47.1 µM (inactive)
[3]
  EC50: > 53 µM (inactive)

## COc1ccc(N2C3=C(CC4=C2CC(C)(C)CC4=O)C(=O)CC(C)(C)C3)cc1
[9]
  EC50: 0.484 µM (active)
[4]
  EC50: 9.52 µM (active)
[10]
  EC50: 9.07 µM (active)
[5]
  EC50: 8.4 µM (active)
